Measured values from ChEMBL document CHEMBL3272215, “Gliotoxin analogues as inhibitors of reverse transcriptase. 2. Resolution and X-ray crystal structure determination” (J Med Chem, 1978).
Calls of active or inactive are those of the source. No cut-off for these calls is given here.

System: Moloney murine leukemia virus
Test: Inhibition of Moloney murine leukemia virus reverse transcriptase assessed as [3H]-dTMP incorporation after 30 to 120 mins

inhibition | logI50 | Compound
Active | – | CN1C(=O)[C@]23SS[C@@]1(C)C(=O)N2c1ccccc1C3(C)C
Active | – | CN1C(=O)[C@@]23SS[C@]1(C)C(=O)N2c1ccccc1C3(C)C
– | 0.796 | CN1C(=O)[C@@]23SSC[C@@H]4OC(C)(C)O[C@H]4CSS[C@]1(C)C(=O)N2c1ccccc1C3(C)C
– | 0.796 | CN1C(=O)[C@]23SSC[C@@H]4OC(C)(C)O[C@H]4CSS[C@@]1(C)C(=O)N2c1ccccc1C3(C)C
